Data on two compounds can be found in US20230203174A1, “COMPOSITION FOR PREVENTING OR ALLEVIATING CELLULAR SENESCENCE” (SEOUL NATIONAL UNIVERSITY R&DB FOUNDATION, priority 2021, published 2023).

For assay [1], the system named is MC3T3-E1 cells. Description: SA-β-gal staining of senescent cells. It counts as cell-based, mouse. On the procedure:
Senescence Associated-β-Galactosidase (SA-β-gal) Staining
SA-β-gal staining was performed with reference to the paper (2009) published by the Debacq-Chainiaux group. Cells cultured on coverslips were fixed in 4% paraformaldehyde at room temperature for 6 min. After washing cells three times with PBS, the cells were reacted for 16-24 hours in a staining solution [40 mM Na2HPO4, pH 6.0, 150 mM NaCl, 2 mM MgCl2, 5 mM K3Fe(CN)6, 5 mM K4Fe(CN)6 and 1 mg/ml X-Gal]. After washing 3 times with PBS, it was permeabilized with PBS containing 0.2% Triton X-100 at room temperature for 15 minutes. For nuclear staining, a mounting solution containing 4′,6-diamidino-2-phenylindole (DAPI) was used (AR-6501-01; ImmunoBioScience Corp., Mukilteo, Wash., USA). Images were acquired using an Eclipse TS-100 inverted microscope (Nikon). Using the ImageJ program, nucleus (DAPI) and SA-b-gal positive cells were counted in each image and compared as an average of % SA-β-gal positive cells (SA-β-gal positive cells/nuclear number×100) using the ImageJ program using 10 images of different parts per group.

The test system of the next assay is Cdkn1a (p21) mRNA. The experiment in a line: RT-qPCR of senescence marker Cdkn1a. It counts as cell-based, mouse. From the text:
(§1) RNA Preparation and Quantitative Real-Time PCR (RT-qPCR)
Background: Real-time PCR tracks product formation cycle by cycle.

The test system of assay [2] is MC3T3-E1 cells. Description: Osteoblast differentiation by ALP and Alizarin Red S staining. It counts as cell-based, mouse. From the text: In addition, it was shown that and a level of protein and an expression of cdkn1a (p21) mRNA which is a molecular marker of cellular senescence, were increased by H2O2 treatment (B and C).
In assay [3] the test system is CCL2, CCL5, and CCL7 mRNA. Description: RT-qPCR of SASP factors CCL2, CCL5, CCL7. It counts as cell-based, mouse.
Excerpt: as §1

Assay [4] deals with PADI2. Description: PADI2 expression (RT-qPCR, Western blot) in MC3T3-E1 cells. It counts as cell-based, mouse.
Excerpt: as §1

The next assay deals with p21. The conditions noted are these: MC3T3-E1 cells, H2O2 treatment.
Assay [5] has as its system PADI2. The conditions noted are these: human-derived mesenchymal stromal cells (hMSC), 100 μM H2O2.
Description: Protein was extracted using a PRO-PREP protein extraction solution (Cat #17081, iNtRON, Korea) according to a manufacturer's protocol. The same amount of protein was transferred to a polyvinylidene fluoride (PVDF) membrane after sodium dodecyl sulfate polyacrylamide gel electrophoresis (SDS-PAGE). After blocking with 5% non-fat milk, membranes were blotted in primary antibody solution at 4° C. in a refrigerator overnight. A membrane reacted with a primary antibody was washed 3 times every 5 minutes with PBS-0.05% Tween 20 solution, then reacted with a secondary antibody for 1-2 hours at room temperature, and then the membrane was washed 3 times with PBS-0.05% Tween 20 solution for 5 minutes. Thereafter, the images were acquired on an ImageQuant LAS4000 Mini (GE Healthcare) using chemiluminescence (Clarity™ Western ECL Substrate, #170-5060; Bio-Rad). α-Tubulin or β-actin was used as a protein loading control.
Total RNA was isolated using the RNeasy Mini Kit (Qiagen, Hilden, Germany). Total RNA (1 μg) was reverse transcribed into cDNA using PrimeScript RT Master Mix (Perfect Real Time) (RR036A; TaKaRa, Japan) and a real-time PCR was performed on an STEPONEPLUS™ Real-Time PCR System (APPLIED BIOSYSTEMS™) instr μMent using TB GREEN® PREMIX EX TAQ™ (RR420A; TaKaRa). […]
For assay [6], the system named is NFκB RelA transcription factor. The conditions noted are these: MC3T3-E1 cells, 100 μM H2O2 for 24 h.
Description: After collecting cells with PBS, a cell pellet was equally divided into two tubes for whole-cell lysate and cell fractionation. The whole-cell lysate prepared with 100 μL of lysis buffer composed of 25 mM Tris-HCl pH 7.4, 150 mM NaCl, 1% NP-40, 1 mM EDTA, 5% glycerol, protease inhibitor cocktail (Roche, #11-836-153-001), phosphatase inhibitor cocktail 2 and 3 (Sigma-Aldrich, P5726 and P004 SEQ ID NO: 4). The nuclear-cytoplasmic fraction was isolated using NEPER™ nuclear and cytoplasmic extraction reagents (78855; Life Technologies, Carlsbad, Calif., USA) according to a manufacturer's protocol. Protein concentration was determined using the Pierce™ BCA Protein Assay Kit (Thermo Fisher Scientific). The whole-cell lysate, a cytoplasmic extract and a nuclear extract were separated by SDS-PAGE, transferred to PVDF membrane, and then Western blot analysis was performed with designated primary and secondary antibodies. Tubulin and Lamin A/C were used as cytoplasmic and nuclear markers, respectively.
Cells cultured on coverslips were fixed in 4% paraformaldehyde, blocked with PBS containing 2% BSA, and then reacted in a refrigerator overnight in a primary antibody solution. […] A degree of fluorescence expression was observed using a confocal microscope (LSM 800, Carl Zeiss), and representative cells were selected and photographed.
Setting [7] is: 1 μM Bay11-7082 co-treated with 100 μM H2O2.
The mark [8] stands for this setting: Padi2 knockdown plus NFκB inhibition.

Like-named read-outs stand apart in the source and are kept apart here.

Turning to `Cc1ccc(S(=O)(=O)/C=C/C#N)cc1` [Bay11-7082], the “number of senescent cells increased by H2O2 alone” value with MC3T3-E1 cells [1] (setting [7]) is “reduced”. Further, the “number of senescent cells increased by Padi2 knockdown” value in the assay on MC3T3-E1 cells [1] (setting [8]) is “decreased”. In the assay on Cdkn1a (p21) mRNA (setting [7]), the “expression of Cdkn1a” value is listed as “reduced”. The “Cdkn1a expression increased by Padi2 knockdown” value in the assay on Cdkn1a (p21) mRNA (setting [8]) is recorded as “decreased”. Further, in the assay on MC3T3-E1 cells [2] (caused by excessive ROS and Padi2 knockdown), the “function degradation of osteoblast (ALP and ARS staining)” value was “restored”. Besides, the “expressions of CCL2, CCL5, and CCL7 (mRNA levels) increased by H2O2” value in assay [3] (combined with H2O2 treatment) is “significantly reduced”.

For `OO` [H2O2, hydrogen peroxide], the “number of SA-β-gal positive cells” value in the assay with MC3T3-E1 cells [1] (MC3T3-E1 cells, 50 μM or 100 μM H2O2 for 3 days) is given as “increased in a H2O2 concentration-dependent manner”. Moreover, the “expression of cdkn1a (p21) mRNA” value with Cdkn1a (p21) mRNA (MC3T3-E1 cells, H2O2 treatment) is “increased”. The “osteoblast differentiation function (ALP and Alizarin Red S staining)” value in the assay with MC3T3-E1 cells [2] (MC3T3-E1 cells, excessive ROS (H2O2)) was “significantly inhibited”. Further, the “Padi2 mRNA level” value in the assay with PADI2 [4] (MC3T3-E1 cells, 100 μM H2O2 for 1, 4, and 7 days in differentiation medium, RT-qPCR) was “significantly reduced”. The “expression of PADI2 (mRNA level and protein level)” value with PADI2 [4] (mouse-derived MC3T3-E1 cells, 100 μM H2O2) is “significantly reduced”; in the assay on PADI2 [5] it was “significantly reduced”. The “CCL2, CCL5, and CCL7 in SASP (RNA-seq and RT-qPCR)” value in assay [3] (upon H2O2 treatment) was “significantly increased”. Also, in the assay on p21, the “level of p21 protein” value is recorded as “increased”. The “NFκB RelA activation and transfer from cytoplasm to nucleus” value in assay [6] is “migration to the nucleus was observed”.
